According to patent US20250255847A1, “[…]s: Novel Drugs for Triple Negative Breast Cancer” (SIMMARON RSEARCH INC, priority 2024, published 2025):

Key:
[1] = Health vitals and open-field test in PDX mice; format: in vivo, mouse; conditions: end of study, 2 mg/Kg Bwt i.p.
Description: FIG. 12 illustrates an embodiment of the present invention and illustrates SIM-1 and SIM-2 arrest the growth of human TNBC tumor in patient-derived xenograft mouse model. TM00096 tumor (origin of invasive ductal carcinoma isolated from a person) was seeded in the flank of 6-week-old female SCID mice by Jackson Laboratory and then shipped to our research facility. Once the tumor reached ˜4 mm in size (˜30 mm^3 in volume), n=6 mice/group were treated by vehicle (5% DMSO), SIM-1 and SIM-2 (2 mg/Kg Bwt mixed with 5% DMSO) via i.p. for 2 weeks in every alternate day. The tumor size was monitored accordingly during the treatment and two more weeks after the last dose to evaluate the recurrence. […] (B) Tumor size was measured every alternate day for 4 weeks by a digital caliper and then the volume was calculated using the formula 0.5*Length*Width^2. […] (D) Body weight was recorded during the course of the study to monitor the adverse metabolic outcome due to the drug administration. (E) The heart rate was monitored at 0-, 7-, 14-, and 28-days post SIM-1 and SIM-2 treatments by MouseStat Jr console (Kent Scientific) as per the manufacturer's instruction. (F) At the end of the study, the gross motor performance was recorded for n=6 (i) vehicle, (ii) SIM-1-, and (iii) SIM-2-treated mice. […]

MDA-MB-468 TNBC cells = test: LDH release cytotoxicity assay in MDA-MB-468 cells; format: cell-based, human; conditions: 48 hrs; for EC50: Homo sapiens, MDA-MB-468, LDH release, read-out: CT50 (half-response of cytotoxicity)
Description: FIG. 11 illustrates an embodiment of the present invention and illustrates SIM-1 and SIM-2 induced apoptosis in MDA-MB-468 TNBC cells, but not HMEC control cells. MDA-MB-468 cells were treated with increasing doses of (A) SIM-1 and (B) SIM-2 for 48 hrs followed by lactate dehydrogenase (LDH) release assay in the supernatants. The result was offset with cell-bound LDH and presented as a percent of DMSO control as discussed under method section. Half-maximal cytotoxicity or CT50 analyses were performed plotting maximum response as an index of increasing doses of (C) SIM-1 and (D) SIM-2. AnnexinV (green) and propidium iodide (red) dual-labeling were performed to evaluate apoptotic response in MDA-MB-468 cells once treated with increasing doses of (E) SIM-1 and (F) SIM-2 for 24 hrs. Nuclei were stained with DAPI. TUNEL assay was performed in MDA-MB-468 cells after treatment with 25 nM of (G) SIM-1. Brown-colored TUNEL bodies were visualized at cresyl violet-stained blue nuclei. (H) The number of TUNEL bodies were counted as a percent of 100 cresyl violet-stained blue cells. Ten independent images were counted for the quantification study. Similarly, SIM-2 was assessed for (I) TUNEL and (J) subsequent quantification analyses. One-way ANOVA was performed to test the significance of mean between groups at **p<0.01 and ****p<0.0001. (K) LDH release assay was performed in non-tumor origin human mammary epithelial cells (HMEC) once treated with increasing doses of SIM-1 and SIM-2 for 48 hrs. Ns=no significance. (L) Annexin V (green) and propidium iodide (red) staining was performed in 25 nM SIM-1- and SIM-2-treated HMEC cells. Nuclei were stained with DAPI. Results are confirmed after three different experiments.
LDH Assay. LDH Assay was performed as per manufacturer's instructions (Cat #: 2570393; Vendor: Thermo Fisher Scientific). MDA-MB-468 and HMEC cells were treated with SIMPYRA-1 and SIMPYRA-2 at doses of 2 nM, 5 nM, […] 25 nM. Each dose was measured in triplicates. After 48 hours of incubation at 37° C., 50 μL of soup from each well was harvested and transferred into a new 96 well plate. Each well was treated with 50 μL of reaction mix (Substrate Mixture+deionized water+Assay Buffer). The reaction was stopped with 50 μL of Stop Solution. The plate was read at 490 nm (background at 680 nm).
This example provides a representative experiment that studies if SIM-1 and SIM-2 promoted the death of TNBC cells. The following experiments were adopted to confirm the apoptosis of TNBC cells. […] During apoptosis, phosphatidyl serine of the plasma membrane flips from the inner to the outer membrane which can be detected by Annexin V labeling, whereas PI stains the nucleus of a cell with compromised integrity of the plasma membrane. […]

| SMILES | open-field test: gross movement, total distance traveled, average speed [1] | concentration of maximum cell death (LDH release) (MDA-MB-468 TNBC cells) [nM] | EC50 (MDA-MB-468 TNBC cells) [nM] |
| --- | --- | --- | --- |
| O=C(O)CCC(=O)NCc1csc2ccc(Cl)cc12 [SIM-1, 4-[(5-chloro-1-benzothiophen-3-yl)methylamino]-4-oxobutanoic acid] | did not show any adverse outcome | 20 | 20.8 |
| CCOC(=O)c1c(NC(C)=O)sc2c(Cl)c(/C=N/O)ccc12 [SIM-2, ethyl 2-acetamido-7-chloro-6-(hydroxyiminomethyl)-1-benzothiophene-3-carboxylate] | did not show any adverse outcome | 20 | 18.3 |
